A word on the IC50: it is the midpoint of a concentration-inhibition curve. As a reminder, the Cmax is the peak of the concentration-time curve. As usually defined, the Tmax is the time at which the peak concentration occurs.

Like-named read-outs stand apart in the source and are kept apart here. Where only a bound is given, the exact number is not on record here.

The values that follow come from article PMC10974768 (Toxins, 2024).

Data set [1] relates to CYP2C8. To be noted: cited from earlier work.
Data set [2] has as its system CYP3A4. The conditions noted are these: read-out: IC50 for CYP3A4; human liver microsomes; cited from earlier work. (Microsomes from liver hold many membrane-bound enzymes, among them those of drug oxidation.)
Another data set concerns broilers. To be noted: AFB1 and TIA co-administrated.
In another data set the test system is CYP2C9. The data set can be described thus: in vitro. The conditions noted are these: chicken, microsomes, pH 7.4. As for the experimental part:
(§1) A cocktail-approach for elucidating the metabolites profiling and CYP450 inhibition was conducted as in Lin et al. with minor changes. The incubation mixture contained 50 μL of 0.2 mg/mL of CLM, 10 μL of 0.1 M phosphate buffer (pH 7.4), 40 μL of 1 mM NADPH and six probe substrates with a total volume of 200 μL. The specific probe substrates used for each CYP450 isoenzyme in the incubation mixture were as follows: PH (CYP1A2), BP (CYP2B6), CLN (CYP2E1), TBD (CYP2C9), CAN (CYP2A6), and MDZ (CYP3A4). Probes substrates were dissolved in methanol as stock solution (1 mg/mL). All of them were diluted to the final concentrations (see Supplemental Materials) with incubation buffer and the percentage of organic solvent in the final incubation volume was below 1% (v/v). Briefly, the mixture was preincubated in a thermoshaker (Biosan, Geraardsbergen, Belgium) for 5 min at 37 °C prior to the initiation of the reaction with NADPH.4Na. After incubation, the mixture was terminated by 400 μL ice-cold acetonitrile. […] A volume of 5 µL of supernatant was analysed using UHPLC-MS/MS.

The next data set deals with CYP1A2. The data set can be described thus: in vitro. The conditions noted are these: chicken, microsomes, pH 7.4. How it is done:
as §1

Data set [3] concerns CYP3A4. The data set can be described thus: in vitro. The conditions noted are these: chicken, pH 7.4. As for the experimental part:
as §1

The test system of a further data set is CYP2E1. The data set can be described thus: in vitro. To be noted: chicken, pH 7.4. As for the experimental part:
as §1

A further data set concerns CYP2B6. The data set can be described thus: in vitro. To be noted: chicken, microsomes, pH 7.4. As for the experimental part: as §1
Data set [4] relates to CYP1A2, CYP2B6, CYP2E1, CYP2C9, CYP2A6, CYP3A4 (summary bound over all). The data set can be described thus: in vitro. To be noted: chicken, microsomes, pH 7.4. As for the experimental part:
as §1

The test system of the next data set is CYP2A6. The data set can be described thus: in vitro. The conditions noted are these: chicken, microsomes, pH 7.4. How it is done:
as §1

Another data set can be described thus: in vivo. It is filed as in vivo, broiler chickens (Ross 308). The conditions noted are these: for TIA concentration in chicken plasma, Treatment group: AFB1 diet 20 µg/kg feed for 2 weeks.
The test system of data set [5] is CYP2C8. The conditions noted are these: cited from earlier work. The source holds these as a separate data set.
The test system of a further data set is CYP3A. To be noted: chickens; doses of 25 and 125 mg/kg body weight; cited from earlier work.
The conditions of data set [6]: chickens exposed to AFB1 (750 µg/kg); nonsignificant; cited from earlier work.
The test system of data set [7] is CYP1A, CYP2A, CYP2C, CYP2B, CYP2E and CYP3A in porcine liver microsomes. The conditions noted are these: concentration of 3 μM; cited from earlier work.
[8] abbreviates: AFB1 diet 20 µg/kg feed for 2 weeks vs control, TIA oral 25 mg/kg BW, p < 0.01.
Where [9] appears, read: TIA oral bolus 25 mg/kg BW, chickens not pretreated with AFB1 (control feed for 2 weeks), n = 9, mean ± SD.

For `CC1(C)S[C@@H]2[C@H](NC(=O)[C@H](N)c3ccc(O)cc3)C(=O)N2[C@H]1C(=O)O` [Amoxicillin], the 50% inhibitory concentration (IC50) with CYP2C8 [1] was 830 µM.
For `C=C[C@]1(C)C[C@@H](OC(=O)CSCCN(CC)CC)[C@]2(C)[C@H](C)CC[C@]3(CCC(=O)[C@H]32)[C@@H](C)[C@@H]1O` [TIA, tiamulin], the IC50 in the data set with CYP3A4 [2] is 1.6 µM; with CYP2C9, above 40 µM; in the data set with CYP1A2, above 40 µM; in the data set on CYP3A4 [3] (microsomes), above 40 µM; in the data set with CYP2E1 (microsomes), above 40 µM; in the data set with CYP2B6, above 40 µM. For the same compound, the results for the IC50 (in data set [4]; in the data set on CYP2A6) were above 7.6 µM and 7.6 µM, respectively. In the data set with broilers, the “adverse health effects in broilers” value is given as “No significant adverse health effects”. For the same compound, the “IC50 for CYP3A4” value in the data set with CYP3A4 [3] came to 334.2 µM. For the same compound, in the data set on CYP2E1, the “IC50 for CYP2E1” value came out at 47.6 µM. In addition, the “TIA concentration in chicken plasma, Treatment group” value stood at 134 ± 71.5 ng/mL in “in vivo” (0.25 h after oral TIA 25 mg/kg BW, mean ± SD); 83.7 ± 40.2 ng/mL in “in vivo” (0.50 h after oral TIA 25 mg/kg BW, mean ± SD); 76.7 ± 40.2 ng/mL in “in vivo” (1 h after oral TIA 25 mg/kg BW, mean ± SD); 91.0 ± 61.2 ng/mL in the data set “in vivo” (2 h after oral TIA 25 mg/kg BW, mean ± SD); 73.6 ± 32.9 ng/mL in “in vivo” (3 h after oral TIA 25 mg/kg BW, mean ± SD); 29.6 ± 13.8 ng/mL in “in vivo” (4 h after oral TIA 25 mg/kg BW, mean ± SD). Moreover, the “TIA concentration in chicken plasma, Treatment group” value came out at 10.8 ± 3.6 ng/mL in “in vivo” (6 h after oral TIA 25 mg/kg BW, mean ± SD); 10.4 ± 3.7 ng/mL in “in vivo” (8 h after oral TIA 25 mg/kg BW, mean ± SD); 9.60 ± 3.0 ng/mL in the data set “in vivo” (12 h after oral TIA 25 mg/kg BW, mean ± SD); 9.50 ± 3.3 ng/mL in the data set “in vivo” (24 h after oral TIA 25 mg/kg BW, mean ± SD). In addition, the “increase of Cmax of TIA by AFB1 exposure” value in “in vivo” (AFB1 diet 20 µg/kg feed for 2 weeks vs control, TIA oral 25 mg/kg BW) is listed as 155%. For the same compound, the “CL_F_obs of TIA in AFB1-exposed group lower than in the control group” value in the data set “in vivo” (setting [8]) was determined as 63%. The “Vd_F_obs of TIA in AFB1-exposed group lower than in the control group” value in “in vivo” (setting [8]) was 57%. Besides, the “increase of AUClast of TIA by AFB1 exposure” value in the data set “in vivo” (setting [8]) is listed as 167%. Further, the “Tmax, Control” value in the data set “in vivo” (setting [9]) came out at 0.4 ± 0.2 h. Also, the “Vd_F_obs, Control” value in the data set “in vivo” (setting [9]) is given as 715.1 ± 228.45 L/kg. The “Vd_F_obs, Treatment” value in the data set “in vivo” (TIA oral bolus 25 mg/kg BW, chickens pretreated with AFB1 contaminated diet (20 µg/kg feed for 2 weeks), n = 8, mean ± SD) was found to be 407.1 ± 142.5 L/kg. The AUC(0-t) in “in vivo” (male, Ross 308, in vivo, po, 25 mg/kg, TIA oral bolus 25 mg/kg BW, chickens not pretreated with AFB1 (control feed for 2 weeks), last sampling point 180 h, n = 9, mean ± SD, read-out: AUClast, Control) came to 294 ± 63.3 ng·h/mL. The AUC(0-inf) was 357 ± 69.6 ng·h/mL in the data set “in vivo” (male, Ross 308, in vivo, po, 25 mg/kg, TIA oral bolus 25 mg/kg BW, chickens not pretreated with AFB1 (control feed for 2 weeks), n = 9, mean ± SD, read-out: AUCINF_obs, Control) and 586 ± 174 ng·h/mL in “in vivo” (male, Ross 308, in vivo, po, 25 mg/kg, TIA oral bolus 25 mg/kg BW, chickens pretreated with AFB1 contaminated diet (20 µg/kg feed for 2 weeks), n = 8, mean ± SD, read-out: AUCINF_obs, Treatment). In addition, the CL/F is 1200 mL/min/kg in “in vivo” (male, Ross 308, in vivo, po, 25 mg/kg, TIA oral bolus 25 mg/kg BW, chickens not pretreated with AFB1 (control feed for 2 weeks), n = 9, mean ± SD, read-out: CL_F_obs, Control (converted)) and 763 mL/min/kg in the data set “in vivo” (male, Ross 308, in vivo, po, 25 mg/kg, TIA oral bolus 25 mg/kg BW, chickens pretreated with AFB1 contaminated diet (20 µg/kg feed for 2 weeks), n = 8, mean ± SD, read-out: CL_F_obs, Treatment (converted)). Also, the Cmax in the data set “in vivo” (male, Ross 308, in vivo, po, 25 mg/kg, TIA oral bolus 25 mg/kg BW, chickens not pretreated with AFB1 (control feed for 2 weeks), n = 9, mean ± SD, read-out: Cmax, Control) amounted to 89.9 ± 45.9 ng/mL; in the data set “in vivo” (male, Ross 308, in vivo, po, 25 mg/kg, TIA oral bolus 25 mg/kg BW, chickens pretreated with AFB1 contaminated diet (20 µg/kg feed for 2 weeks), n = 8, mean ± SD, read-out: Cmax, Treatment) it was 142 ± 65.4 ng/mL. Also, the MRT last in “in vivo” (male, Ross 308, in vivo, po, 25 mg/kg, TIA oral bolus 25 mg/kg BW, chickens not pretreated with AFB1 (control feed for 2 weeks), n = 9, mean ± SD, read-out: MRTlast, Control) amounted to 6.8 ± 1.4 h; in “in vivo” (male, Ross 308, in vivo, po, 25 mg/kg, TIA oral bolus 25 mg/kg BW, chickens pretreated with AFB1 contaminated diet (20 µg/kg feed for 2 weeks), n = 8, mean ± SD, read-out: MRTlast, Treatment), 6.2 ± 1.8 h. Moreover, the half-life is 7 ± 2.9 h in “in vivo” (male, Ross 308, in vivo, po, 25 mg/kg, TIA oral bolus 25 mg/kg BW, chickens not pretreated with AFB1 (control feed for 2 weeks), n = 9, mean ± SD, read-out: T1/2λz, Control (converted)) and 6.3 ± 2.2 h in the data set “in vivo” (male, Ross 308, in vivo, po, 25 mg/kg, TIA oral bolus 25 mg/kg BW, chickens pretreated with AFB1 contaminated diet (20 µg/kg feed for 2 weeks), n = 8, mean ± SD, read-out: T1/2λz, Treatment (converted)). Also, the Tmax stood at 0.44 h in the data set “in vivo” (male, Ross 308, in vivo, po, 25 mg/kg, TIA oral bolus 25 mg/kg BW, chickens not pretreated with AFB1 (control feed for 2 weeks), n = 9, mean ± SD, read-out: Tmax, Control) and 1 ± 1.1 h in “in vivo” (male, Ross 308, in vivo, po, 25 mg/kg, TIA oral bolus 25 mg/kg BW, chickens pretreated with AFB1 contaminated diet (20 µg/kg feed for 2 weeks), n = 8, mean ± SD, read-out: Tmax, Treatment).
On to `COc1cc(Cc2cnc(N)nc2N)cc(OC)c1OC` [Trimethoprim], for which the “inhibitory effect on CYP2C8” value in the data set on CYP2C8 [5] is reported as “weak inhibitory effect”.
For `CCN1CCN(c2cc3c(cc2F)c(=O)c(C(=O)O)cn3C2CC2)CC1` [enrofloxacin], the “inhibition of CYP3A activity” value in the data set on CYP3A is recorded as “inhibit CYP3A activity”. Also, in [6], the “increase of AUC0–∞” value is 17%, the “increase of T1/2a” value is 17% and the “increase of Tmax” value is given as 26%.
For `CCC[C@@H]1C[C@@H](C(=O)N[C@@H]([C@H]2O[C@H](SC)[C@H](O)[C@@H](O)[C@H]2O)[C@@H](C)O)N(C)C1` [lincomycin], the “inhibition of CYP1A, CYP2A, CYP2C, CYP2B, CYP2E and CYP3A” value in data set [7] is listed as “inhibits”.
